#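 The compound was tested at five concentrations on cells cultured in 96-well plates, with a 48-hour exposure period. GI50 marks 50% less growth. TGI denotes the concentration required for complete inhibition of growth.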
# What was measured:
# Experiment in all cases: NCI tumour cell line growth inhibition, 48 h
# [1] = test system: OVCAR-8 ovarian
# [2] = test system: IGROV1 ovarian
# [3] = test system: SF-295 CNS
# [4] = test system: SK-MEL-2 melanoma
# [5] = test system: CAKI-1 renal
# [6] = test system: NCI-H460 lung
# [7] = test system: KM12 colon
# [8] = test system: HOP-92 NSCLC
# [9] = test system: RPMI-8226 leukemia
# [10] = test system: SK-MEL-5 melanoma
Compound,TGI [1],TGI [2],TGI [3],TGI [4],TGI [5],TGI [6],TGI [7],TGI [8],TGI [9],TGI [10],GI50 [1],GI50 [2],GI50 [3],GI50 [4],GI50 [5],GI50 [6],GI50 [7],GI50 [8],GI50 [9],GI50 [10]
CC(=O)Oc1ccccc1[C@H]1CC(=O)C[C@H](c2ccccc2OC(C)=O)C12C(=O)c1ccccc1C2=O,> 100 µM,> 100 µM,> 100 µM,66.2 µM,> 100 µM,60.3 µM,> 100 µM,> 100 µM,> 100 µM,48.7 µM,,,,,,,,,,
O=C(c1ccccc1)c1nn(-c2ccc(Cl)cc2)c2nc3nc(-c4ccccc4)cc(=O)n3nc12,> 100 µM,> 100 µM,63.1 µM,70.4 µM,> 100 µM,> 100 µM,> 100 µM,74.7 µM,> 100 µM,51.9 µM,48.3 µM,18.3 µM,23.5 µM,26.3 µM,> 100000 nM,39.1 µM,31.9 µM,22.1 µM,28.8 µM,20.4 µM
COc1cc2cc(Oc3ccc(NC(=O)Nc4ccc(F)c(C(F)(F)F)c4)cc3)c(C)nc2cc1OCCN1CCCCC1,,,3.29 µM,3.45 µM,2.78 µM,3.6 µM,3.3 µM,3.02 µM,,3.09 µM,,,1.8 µM,1.84 µM,1470 nM,1.89 µM,1.77 µM,1.52 µM,,1.7 µM
CCOC(=O)c1c(O)[nH]c(=O)c(CC)c1C,> 100 µM,> 100 µM,> 100 µM,> 100 µM,> 100 µM,> 100 µM,> 100 µM,> 100 µM,> 100 µM,> 100 µM,,,,,,,,,,
CN(C)CCN1C(=O)CC[C@@]2(C)C1=CC[C@@H]1[C@@H]2CC[C@@]2(C)[C@H]1CC[C@]2(C)O,> 100 µM,> 100 µM,> 100 µM,> 100 µM,> 100 µM,> 100 µM,> 100 µM,> 100 µM,> 100 µM,> 100 µM,,,,,,,,,,
CCOC(=O)c1ncoc1[C@H]1COC(C)(C)O1,> 100 µM,> 100 µM,> 100 µM,> 100 µM,> 100 µM,> 100 µM,,,> 100 µM,> 100 µM,,,,,,,,,,
O=C(O)C(CS)NCc1c2ccccc2[n+]([O-])c2ccccc12 (configuration not stated),> 100 µM,> 100 µM,> 100 µM,> 100 µM,> 100 µM,> 100 µM,> 100 µM,46.5 µM,92.4 µM,> 100 µM,,,,,,,,,,
